How the values were obtained:
[1] = Rodent pharmacokinetic study; assay type: in vivo, rat; settings: male Wistar rats; for clearance / half-life / Vd / Cmax / Tmax / bioavailability: rat, plasma; for Vd: read-out: Vz; for bioavailability: 3 mg/kg oral vs 1 mg/kg i.v.
Description: Rodent Pharmacokinetic Study
Male Wistar rats (260±50 grams) were used as experimental animals. Animals were housed individually in polypropylene cage. Two days prior to study, male Wistar rats were anesthetized with isoflurane for surgical placement of jugular vein catheter. Rats were randomly divided for oral (3 mg/kg) and intravenous (1 mg/kg) dosing (n=3/group) and fasted overnight before oral dosing (p.o.). However, rats allocated to intravenous (i.v.) dosing food and water was provided ad libitum.
At pre-determined point, blood was collected through jugular vein and replenished with an equivalent volume of normal saline. Collected blood was transferred into a labeled eppendorf tube containing 10 μL of heparin as an anticoagulant. Typically blood samples were collected at following time points: 0.08, 0.25, 0.5, 1, 2, 4, 6, 8, and 24 hours post dose. Blood was centrifuged at 4000 rpm for 10 minutes. Plasma was separated and stored frozen at −80° C. until analysis. The concentrations of the test compounds were quantified in plasma by qualified LC-MS/MS method using suitable extraction technique. The test compounds were quantified in the calibration range around 1-1000 ng/mL in plasma. Study samples were analyzed using calibration samples in the batch and quality control samples spread across the batch.
Pharmacokinetic parameters Cmax, Tmax, AUCt, T1/2, clearance, Vz and bioavailability were calculated by non-compartmental model using standard non-compartmental model by using Phoenix WinNonlin 6.0.2 or 6.0.3 version Software package.

[2] = target: recombinant human Muscarinic M1 receptor (Homo sapiens (Human), UniProt P11229); assay: Allosteric potency EC50, CHO cells with pCRE-Luc reporter, in presence of EC20 of acetylcholine; assay type: cell-based; settings: 4 hours
recombinant human Muscarinic M1 receptor, sequence (P11229 whole entry): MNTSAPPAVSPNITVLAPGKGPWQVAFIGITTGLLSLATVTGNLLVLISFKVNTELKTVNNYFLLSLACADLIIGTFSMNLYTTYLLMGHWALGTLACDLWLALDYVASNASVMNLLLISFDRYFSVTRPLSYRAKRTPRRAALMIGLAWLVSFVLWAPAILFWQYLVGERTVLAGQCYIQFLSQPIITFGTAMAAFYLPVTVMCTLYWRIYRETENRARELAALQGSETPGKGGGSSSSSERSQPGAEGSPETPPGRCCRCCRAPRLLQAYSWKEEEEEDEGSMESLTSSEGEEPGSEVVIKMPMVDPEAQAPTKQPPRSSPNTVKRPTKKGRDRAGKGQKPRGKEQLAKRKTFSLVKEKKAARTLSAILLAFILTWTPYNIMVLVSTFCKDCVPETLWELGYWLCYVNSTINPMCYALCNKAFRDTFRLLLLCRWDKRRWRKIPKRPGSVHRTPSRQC
Procedure, shortened: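 Stable CHO cells carrying human M1 receptor and a pCRE-Luc reporter, serum-starved overnight, then exposed to rising compound concentrations plus EC20 acetylcholine in OptiMEM for 4 h at 37 °C. Luciferase read after lysis. EC50 is the concentration giving 50% luciferase stimulation with EC20 acetylcholine present.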

Male Wistar rats [3] = assay: Object recognition task model - scopolamine challenge; assay type: in vivo, rat; settings: 0.3 mg/kg, p.o., with scopolamine
Description: Object Recognition Task Model—Scopolamine Challenge
(§1) The cognition enhancing properties of compounds of this invention were estimated by using this model.
(§2) Male Wistar rats (8-10 weeks old) were used as experimental animals. Four animals were housed in each cage. Animals were kept on 20% food deprivation from a day prior to experimentation. Water was provided ad libitum throughout the experiment. Animals were maintained on a 12 hours light/dark cycle in temperature and humidity controlled room. The experiment was carried out in an open field made up of acrylic. Rats were habituated to individual arenas (open field) for 1 hour in the absence of any objects on day 1.
Rats received vehicle or vehicle and scopolamine or compound of the formula (I) and scopolamine, before the familiar (T1). During the familiarization phase, (T1), the rats were placed individually in the arena for 3 minutes, in which two identical objects (a1 and a2) were positioned 10 cm from the wall. 3 minutes after T1, trial for memory test was performed. The same rats were placed in the same arena as they were placed in T1 trial. During the choice phase (T2) rats were allowed to explore the arena for 3 minutes in presence of a copy of familiar object (a3) and one novel object (b). During the T1 and T2 trial, explorations of each object (defined as sniffing, licking, chewing or having moving vibrissae whilst directing the nose towards the object at a distance of less than 1 cm) were recorded using stopwatch.
(§3) T1 is the total time spent exploring the familiar objects (a1+a2).
(§4) T2 is the total time spent exploring the familiar object and novel object (a3+b). Discriminative index=Time spent with novel object/(time spent with novel and familiar object).

Male Wistar rats [4] = assay: Object recognition task model (time induced memory deficit); assay type: in vivo, rat; settings: p.o.; for Exploration time mean ± S.E.M, Familiar object / Exploration time mean ± S.E.M, Novel object: choice trial 24 hours after T1
Description: Object Recognition Task Model
as §1, §2
One group of 12 rats received vehicle and another set of animals received test compounds or test compounds and Donepezil, before the familiar (T1) and choice (T2) trials. During the familiarization phase, (T1), the rats were placed individually in the arena for 3 minutes, in which two identical objects (a1 and a2) were positioned 10 cm from the wall. 24 hours after T1, trial for long-term memory test was performed. The same rats were placed in the same arena as they were placed in T1 trial. During the choice phase (T2) rats were allowed to explore the arena for 3 minutes in presence of a copy of familiar object (a3) and one novel object (b). During the T1 and T2 trial, explorations of each object (defined as sniffing, licking, chewing or having moving vibrissae whilst directing the nose towards the object at a distance of less than 1 cm) were recorded using stopwatch.
as §3, §4
The object recognition test was performed as described in Behavioural Brain Research, 1988, 31, 47-59.

[5] = Rodent brain penetration study; assay type: in vivo; settings: rat, oral, 3 mg/kg, p.o., male Wistar rats, read-out: Single dose Rat Brain Penetration (Cb/Cp)
Description: Rodent Brain Penetration Study
Male Wistar rats (260±40 grams) were used as experimental animals. Three animals were housed in each cage. Animals were given water and food ad libitum throughout the experiment and maintained on a 12 hours light/dark cycle.
Brain penetration was determined in discrete manner in rats. One day prior to dosing day, male Wistar rats were acclimatized and randomly grouped according to their weight. At each time point (0.50, 1 and 2 hours) n=3 animals were used.
The test compounds were suitably preformulated and administered orally at (free base equivalent) 3 mg/kg. Blood samples were removed via cardiac puncture by using isoflurane anesthesia. The animals were sacrificed to collect brain tissue. Plasma was separated and brain samples were homogenized and stored frozen at −20° C. until analysis. The concentrations of the test compounds in plasma and brain were determined using LC-MS/MS method.
The test compounds were quantified in plasma and brain homogenate by qualified LC-MS/MS method using suitable extraction technique. The test compounds were quantified in the calibration range of 1-500 ng/mL in plasma and brain homogenate. Study samples were analyzed using calibration samples in the batch and quality control samples spread across the batch. Extent of brain-plasma ratio was calculated (Cb/Cp).

[6] = cited from earlier work
[7] = choice trial 3 minutes after T1

| Compound | AUC0-t ([1]; 1 mg/kg i.v. (bolus)) | AUC0-t ([1]; 3 mg/kg oral (gavage)) | clearance ([1]; iv, 1 mg/kg i.v. (bolus)) | half-life ([1]; iv, 1 mg/kg i.v. (bolus)) | Vd ([1]; iv, 1 mg/kg i.v. (bolus)) | Cmax ([1]; 3 mg/kg oral (gavage)) | Tmax ([1]; 3 mg/kg oral (gavage)) | half-life ([1]; 3 mg/kg oral (gavage)) | bioavailability [1] | EC50 [2] | Kp [5] | Inference (Male Wistar rats [4]; 1 mg/kg) | Exploration time mean ± S.E.M, Familiar object (Male Wistar rats [4]; 1 mg/kg) | Exploration time mean ± S.E.M, Novel object (Male Wistar rats [4]; 1 mg/kg) | further results |
| --- | --- | --- | --- | --- | --- | --- | --- | --- | --- | --- | --- | --- | --- | --- | --- |
| O=C(N[C@H]1CCCC[C@@H]1O)C1=CN(Cc2ccccc2F)c2ccccc2O1 [Example 1, N-(cis-1S, 2S-2-Hydroxycyclohexyl)-4-(2-fluorobenzyl)-4H-benzo[1,4]oxazine-2-carboxamide] | 834 ± 101 ng·h/mL | 989 ± 386 ng·h/mL | 19 ± 2 mL/min/kg | 2.3 ± 0.7 h | 4 ± 1.4 L/kg | 419 ± 162 ng/mL | 0.5 h | 2.3 ± 1.1 h | 40 ± 15% | 422 nM | 1.18 ± 0.38 | Active | 10.93 ± 1.98 s | 19.27 ± 2.94 s | Inference (Male Wistar rats [3]): Active; Exploration time mean ± S.E.M, Familiar object (Male Wistar rats [3]; [7]): 11.57 ± 1.51 s; Exploration time mean ± S.E.M, Novel object (Male Wistar rats [3]; [7]): 22.66 ± 2.90 s |
| O=C(N[C@H]1CCCC[C@@H]1O)C1=CN(Cc2cccc(F)c2)c2ccccc2O1 [Example 7, N-(cis-1S, 2S-2-Hydroxycyclohexyl)-4-(3-fluorobenzyl)-4H-benzo[1,4]oxazine-2-carboxamide] | 553 ± 42 ng·h/mL | 652 ± 227 ng·h/mL | 29 ± 2 mL/min/kg | 1.7 ± 0.3 h | 4.3 ± 0.9 L/kg | 313 ± 111 ng/mL | 0.5 h | 1.8 ± 0.3 h | 39 ± 14% | 891 nM | 1.04 ± 0.16 |  |  |  | Inference (Male Wistar rats [4]; 3 mg/kg): Active; Exploration time mean ± S.E.M, Familiar object (Male Wistar rats [4]; 3 mg/kg): 9.23 ± 1.53 s; Exploration time mean ± S.E.M, Novel object (Male Wistar rats [4]; 3 mg/kg): 13.92 ± 1.99 s |
| COc1cccc(CN2C=C(C(=O)N[C@H]3CCCC[C@@H]3O)Oc3ccccc32)c1 [Example 9, N-(cis-1S, 2S-2-Hydroxycyclohexyl)-4-(3-methoxybenzyl)-4H-benzo[1,4]oxazine-2-carboxamide] | 711 ± 137 ng·h/mL | 1180 ± 245 ng·h/mL | 24 ± 4 mL/min/kg | 4.2 ± 2.2 h | 8.3 ± 4.1 L/kg | 320 ± 68 ng/mL | 1.33 ± 0.58 h | 2.9 ± 1.3 h | 55 ± 11% | 699 nM | 0.65 ± 0.2 | Active | 8.64 ± 0.82 s | 18.55 ± 1.70 s |  |
| CCCCCCOc1nsnc1C1=CCCN(C)C1 [Xanomeline] |  |  |  |  |  |  |  |  |  |  |  |  |  |  | effects on cognition ([6]; clinical Alzheimer's disease trial): significant effects on cognition; gastrointestinal side effects ([6]; clinical trials): gastrointestinal side effects led to a high dropout rate |

More lines, main results first:

| AUC0-t ([1]; 1 mg/kg i.v. (bolus)) | AUC0-t ([1]; 3 mg/kg oral (gavage)) | clearance ([1]; iv, 1 mg/kg i.v. (bolus)) | half-life ([1]; iv, 1 mg/kg i.v. (bolus)) | Vd ([1]; iv, 1 mg/kg i.v. (bolus)) | Cmax ([1]; 3 mg/kg oral (gavage)) | Tmax ([1]; 3 mg/kg oral (gavage)) | half-life ([1]; 3 mg/kg oral (gavage)) | bioavailability [1] | EC50 [2] | Kp [5] | Compound | Inference (Male Wistar rats [4]; 1 mg/kg) | Exploration time mean ± S.E.M, Familiar object (Male Wistar rats [4]; 1 mg/kg) | Exploration time mean ± S.E.M, Novel object (Male Wistar rats [4]; 1 mg/kg) | further results |
| --- | --- | --- | --- | --- | --- | --- | --- | --- | --- | --- | --- | --- | --- | --- | --- |
| 838 ± 163 ng·h/mL | 1500 ± 200 ng·h/mL | 20 ± 4 mL/min/kg | 1.9 ± 0.6 h | 3.1 ± 0.3 L/kg | 392 ± 43 ng/mL | 1 h | 1.8 ± 0.1 h | 60 ± 8% | 498 nM | 1.44 ± 0.16 | COc1cc(CN2C=C(C(=O)N[C@H]3CCCC[C@@H]3O)Oc3ccccc32)ccn1 [Example 11, N-(cis-1S,2S-2-Hydroxycyclohexyl)-4-(2-methoxypyridin-4-ylmethyl)-4H-benzo[1,4]oxazine-2-carboxamide] | Active | 10.05 ± 1.66 s | 16.92 ± 1.86 s |  |
| 1490 ± 149 ng·h/mL | 4270 ± 800 ng·h/mL | 11 ± 1 mL/min/kg | 1.7 ± 0.3 h | 1.5 ± 0.1 L/kg | 992 ± 150 ng/mL | 0.67 ± 0.29 h | 2.7 ± 0.3 h | 95 ± 18% | 369 nM | 0.25 ± 0.08 | O=C(N[C@H]1CCCC[C@@H]1O)C1=CN(Cc2ccc(Cl)nc2)c2ccccc2O1 [Example 21, N-(cis-1S,2S-2-Hydroxycyclohexyl)-4-(2-chloropyridin-5-ylmethyl)-4H-benzo[1,4]oxazine-2-carboxamide] | Active | 9.18 ± 1.63 s | 17.67 ± 2.89 s |  |
| 419 ± 182 ng·h/mL | 437 ± 138 ng·h/mL | 44 ± 21 mL/min/kg | 1.5 ± 0.9 h | 6.8 ± 7.1 L/kg | 428 ± 78 ng/mL | 0.42 ± 0.14 h | 1.2 ± 0.6 h | 35 ± 11% | 323 nM | 0.32 ± 0.02 | O=C(N[C@H]1CCCC[C@@H]1O)C1=CN(Cc2ccncc2)c2ccccc2O1 [Example 23, N-(cis-1S,2S-2-Hydroxycyclohexyl)-4-(pyridin-4-ylmethyl)-4H-benzo[1,4]oxazine-2-carboxamide] | Active | 13.15 ± 1.55 s | 17.99 ± 2.53 s |  |

— US10308620B2, “Muscarinic M1 receptor positive allosteric modulators” (SUVEN LIFE SCIENCES LIMITED, priority 2015, dated 2019)
